Patent US7612200B2, “Inhibitors of protein kinases” (Locus Pharmaceuticals, Inc., priority 2004, dated 2009)

Assays:
[1] = target: CK2-alpha 1 (Homo sapiens, UniProt P68400); test: Kinase activity at ATP Km,app, CK2-alpha 1; assay type: biochemical; conditions: compound 2 μM
[2] = target: ERK2 (Homo sapiens, UniProt P28482); test: Kinase activity at ATP Km,app, ERK2; assay type: biochemical; conditions: compound 2 μM
[3] = target: T1, Flt3 (Homo sapiens, UniProt P36888); test: Kinase activity at ATP Km,app, Flt3; assay type: biochemical; conditions: 40 min, compound 2 μM
T1 sequence (P36888 27-993): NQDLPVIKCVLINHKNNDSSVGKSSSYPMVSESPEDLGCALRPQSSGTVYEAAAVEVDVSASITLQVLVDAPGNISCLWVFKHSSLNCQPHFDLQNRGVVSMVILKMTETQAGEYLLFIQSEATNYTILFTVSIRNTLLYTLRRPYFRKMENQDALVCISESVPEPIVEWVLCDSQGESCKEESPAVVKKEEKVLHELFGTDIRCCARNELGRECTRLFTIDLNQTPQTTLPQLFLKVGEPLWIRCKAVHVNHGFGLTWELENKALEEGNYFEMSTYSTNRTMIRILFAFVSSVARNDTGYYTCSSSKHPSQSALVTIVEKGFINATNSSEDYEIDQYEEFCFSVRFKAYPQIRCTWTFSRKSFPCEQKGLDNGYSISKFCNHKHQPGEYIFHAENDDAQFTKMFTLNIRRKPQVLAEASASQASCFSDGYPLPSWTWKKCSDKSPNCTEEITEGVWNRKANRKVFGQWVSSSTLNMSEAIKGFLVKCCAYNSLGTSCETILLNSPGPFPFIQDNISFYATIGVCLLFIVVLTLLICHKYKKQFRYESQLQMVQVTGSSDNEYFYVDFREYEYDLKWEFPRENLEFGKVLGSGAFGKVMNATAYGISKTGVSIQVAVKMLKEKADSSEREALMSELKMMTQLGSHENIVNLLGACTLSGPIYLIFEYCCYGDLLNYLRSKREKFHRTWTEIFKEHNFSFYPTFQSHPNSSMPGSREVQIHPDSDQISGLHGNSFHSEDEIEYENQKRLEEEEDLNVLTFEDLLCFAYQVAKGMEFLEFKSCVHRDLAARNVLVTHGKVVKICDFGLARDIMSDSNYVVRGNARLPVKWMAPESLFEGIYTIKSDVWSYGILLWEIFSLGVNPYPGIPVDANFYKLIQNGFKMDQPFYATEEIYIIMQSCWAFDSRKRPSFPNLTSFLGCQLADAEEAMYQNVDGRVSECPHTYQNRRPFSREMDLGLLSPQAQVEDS
Experimental: (§1) Flt3 Kinase Activity: In a final reaction volume of 25 μl, Flt3 (h) (5-10 mU) is incubated with 8 mM MOPS pH 7.0, 0.2 mM EDTA, 50 μM EAIYAAPFAKKK, 10 mM MgAcetate and [γ-^33P-ATP] (specific activity approx. 500 cpm/pmol, concentration as required). The reaction is initiated by the addition of the MgATP mix. After incubation for 40 minutes at room temperature, the reaction is stopped by the addition of 5 ml of a 3% phosphoric acid solution. 10 ml of the reaction is then spotted onto a P30 filtermat and washed three times for 5 minutes in 75 mM phosphoric acid and once in methanol prior to drying and scintillation counting.

[4] = target: LynA (Homo sapiens, UniProt P07948); test: Kinase activity at ATP Km,app, LynA; assay type: biochemical; conditions: 40 min, compound 2 μM
Experimental: Lyn Kinase Activity: In a final reaction volume of 25 μl, Lyn (h) (5-10 mU) is incubated with 50 mM Tris pH 7.5, 0.1 mM EGTA, 0.1 mM Na3VO4, 0.1% β-mercaptoethanol, 0.1 mg/ml poly(Glue, Tyr) 4:1, 10 mM MgAcetate and [γ-^33P-ATP] (specific activity approx. 500 cpm/pmol, concentration as required). The reaction is initiated by the addition of the MgATP mix. After incubation for 40 minutes at room temperature, the reaction is stopped by the addition of 5 μl of a 3% phosphoric acid solution. 10 μl of the reaction is then spotted onto a Filtermat A and washed three times for 5 minutes in 75 mM phosphoric acid and once in methanol prior to drying and scintillation counting.

[5] = target: PDGFR-beta (Homo sapiens, UniProt P09619); test: Kinase activity at ATP Km,app, PDGFR-beta; assay type: biochemical; conditions: 40 min, compound 2 μM
Experimental: PDGFRβ Kinase Activity: In a final reaction volume of 25 μl, PDGFRβ (h) (5-10 mU) is incubated with 8 mM MOPS pH 7.0 0.2 mM EDTA, 0.1 mg/ml poly(Glu, Tyr) 4:1, 10 mM MnCl2, 10 mM MgAcetate and [γ-^33P-ATP] (specific activity approx. 500 cpm/pmol, concentration as required). The reaction is initiated by the addition of the MgATP mix. After incubation for 40 minutes at room temperature, the reaction is stopped by the addition of 5 μl of a 3% phosphoric acid solution. 10 μl of the reaction is then spotted onto a Filtermat A and washed three times for 5 minutes in 75 mM phosphoric acid and once in methanol prior to drying and scintillation counting.

[6] = target: PKA (Bos taurus, UniProt P00517); test: Kinase activity at ATP Km,app, PKA; assay type: biochemical, bovine; conditions: 40 min, compound 2 μM
Experimental: PKA Kinase Activity: In a final reaction volume of 25 μl, PKA (b) (5-10 mU) is incubated with 8 mM MOPS pH 7.0, 0.2 mM EDTA, 30 μM LRRASLG (Kemptide), 10 mM MgAcetate and [γ-^33P-ATP] (specific activity approx. 500 cpm/pmol, concentration as required). The reaction is initiated by the addition of the MgATP mix. After incubation for 40 minutes at room temperature, the reaction is stopped by the addition of 5 μl of a 3% phosphoric acid solution. 10 μl of the reaction is the spotted onto a P30 filtermat and washed three times for 5 minutes in 50 mM phosphoric acid and once in methanol prior to drying and scintillation counting.

[7] = target: PKC-alpha (Homo sapiens, UniProt P17252); test: Kinase activity at ATP Km,app, PKC-alpha; assay type: biochemical; conditions: 40 min, compound 2 μM
Experimental: as §1, with “PKCα” for “Flt3”, “20” for “8”, “HEPES” for “MOPS”, “7.4, 0.03% Triton X-100, 0.1” for “7.0, 0.2”, “CaCl2, 0.1 mg/ml phosphatidylserine, 10 μg/ml diacylglycerol, 0.1 mg/ml histone Hi,” for “EDTA, 50 μM EAIYAAPFAKKK,”, “μl” for “ml”

Sequence of LynA (P07948 whole entry): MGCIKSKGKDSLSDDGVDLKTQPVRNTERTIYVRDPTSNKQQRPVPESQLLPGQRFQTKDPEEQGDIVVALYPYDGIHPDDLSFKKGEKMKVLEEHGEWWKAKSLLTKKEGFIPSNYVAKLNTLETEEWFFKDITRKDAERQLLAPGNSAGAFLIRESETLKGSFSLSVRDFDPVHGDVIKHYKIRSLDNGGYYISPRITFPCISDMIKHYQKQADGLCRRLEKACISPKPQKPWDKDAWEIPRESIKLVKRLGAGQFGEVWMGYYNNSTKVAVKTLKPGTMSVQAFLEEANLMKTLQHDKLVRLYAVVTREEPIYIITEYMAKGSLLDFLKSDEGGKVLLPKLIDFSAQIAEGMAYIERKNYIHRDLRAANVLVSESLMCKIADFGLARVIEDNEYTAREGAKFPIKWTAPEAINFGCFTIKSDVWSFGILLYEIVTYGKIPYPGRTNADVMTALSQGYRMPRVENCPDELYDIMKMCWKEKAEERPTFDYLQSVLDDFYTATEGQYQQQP
Sequence of ERK2 (P28482 whole entry, species assumed): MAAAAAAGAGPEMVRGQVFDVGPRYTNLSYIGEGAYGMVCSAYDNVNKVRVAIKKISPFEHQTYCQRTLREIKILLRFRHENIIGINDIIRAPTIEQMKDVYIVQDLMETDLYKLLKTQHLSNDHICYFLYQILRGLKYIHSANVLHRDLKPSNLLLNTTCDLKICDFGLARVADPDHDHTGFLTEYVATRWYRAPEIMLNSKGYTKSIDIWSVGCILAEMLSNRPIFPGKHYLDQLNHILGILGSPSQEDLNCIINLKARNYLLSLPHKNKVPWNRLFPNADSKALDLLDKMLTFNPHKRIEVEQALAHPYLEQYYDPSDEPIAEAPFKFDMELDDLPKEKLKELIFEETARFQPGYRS
Sequence of CK2-alpha 1 (P68400 whole entry): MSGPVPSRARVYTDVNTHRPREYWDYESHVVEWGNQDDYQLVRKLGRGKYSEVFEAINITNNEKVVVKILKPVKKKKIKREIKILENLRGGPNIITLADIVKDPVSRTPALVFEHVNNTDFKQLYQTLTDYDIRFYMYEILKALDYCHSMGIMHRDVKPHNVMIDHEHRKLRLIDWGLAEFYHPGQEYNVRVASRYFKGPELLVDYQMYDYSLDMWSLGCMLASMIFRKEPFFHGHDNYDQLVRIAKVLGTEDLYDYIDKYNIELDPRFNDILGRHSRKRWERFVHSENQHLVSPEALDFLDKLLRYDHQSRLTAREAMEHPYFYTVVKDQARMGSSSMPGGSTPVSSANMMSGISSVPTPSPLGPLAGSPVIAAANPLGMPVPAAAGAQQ
Sequence of PDGFR-beta (P09619 33-1106): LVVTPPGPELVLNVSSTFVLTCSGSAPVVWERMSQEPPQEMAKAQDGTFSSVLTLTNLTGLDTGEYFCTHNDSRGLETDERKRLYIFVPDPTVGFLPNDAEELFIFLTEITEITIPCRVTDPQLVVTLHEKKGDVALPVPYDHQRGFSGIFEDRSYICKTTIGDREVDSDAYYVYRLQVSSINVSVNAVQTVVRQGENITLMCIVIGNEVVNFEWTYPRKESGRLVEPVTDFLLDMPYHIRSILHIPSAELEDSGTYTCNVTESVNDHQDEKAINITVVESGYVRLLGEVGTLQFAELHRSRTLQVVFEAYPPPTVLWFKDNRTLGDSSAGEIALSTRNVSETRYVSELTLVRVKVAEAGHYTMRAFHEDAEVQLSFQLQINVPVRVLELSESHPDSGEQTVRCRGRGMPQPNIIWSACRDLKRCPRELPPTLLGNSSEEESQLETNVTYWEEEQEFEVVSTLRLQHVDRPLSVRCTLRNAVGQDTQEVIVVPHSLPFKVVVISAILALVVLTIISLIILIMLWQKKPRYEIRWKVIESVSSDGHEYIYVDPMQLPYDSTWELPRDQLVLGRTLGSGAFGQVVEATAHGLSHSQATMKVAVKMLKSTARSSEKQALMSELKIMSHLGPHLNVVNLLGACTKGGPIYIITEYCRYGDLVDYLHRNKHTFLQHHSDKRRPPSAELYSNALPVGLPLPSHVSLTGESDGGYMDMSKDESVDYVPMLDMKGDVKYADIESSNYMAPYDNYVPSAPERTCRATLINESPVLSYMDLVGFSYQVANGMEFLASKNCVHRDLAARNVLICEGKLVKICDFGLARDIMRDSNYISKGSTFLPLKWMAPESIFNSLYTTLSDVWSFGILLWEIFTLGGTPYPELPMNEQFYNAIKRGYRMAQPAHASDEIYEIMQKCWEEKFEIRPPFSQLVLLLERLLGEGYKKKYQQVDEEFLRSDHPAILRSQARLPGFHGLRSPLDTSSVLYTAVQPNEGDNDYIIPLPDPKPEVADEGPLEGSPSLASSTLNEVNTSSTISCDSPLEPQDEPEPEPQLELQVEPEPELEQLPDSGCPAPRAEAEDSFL

inhibition at 2 µM [1] [%] | inhibition at 2 µM [2] [%] | inhibition at 2 µM [3] [%] | inhibition at 2 µM [4] [%] | inhibition at 2 µM [5] [%] | inhibition at 2 µM [6] [%] | inhibition at 2 µM [7] [%] | SMILES
0 to 25 | 0 to 25 | 76 to 100 | 26 to 50 | 26 to 50 | 0 to 25 | 0 to 25 | CC(C)(C)c1cc(C(=O)N2CCNS(=O)(=O)CC2)c(NC(=O)Nc2ccc(Oc3ccncc3)cc2)s1 [Example 1, 1-(5-tert-Butyl-3-(1,1-dioxo-1λ^6-[1,2,5]thiadiazepane-5-carbonyl)thiophen-2-yl)-3-(4-(pyridin-4-yloxy)phenyl)urea]
0 to 25 | 0 to 25 | 76 to 100 | 51 to 76 | 26 to 50 | 0 to 25 | 0 to 25 | CC(C)(C)c1cc(C(=O)N2CCNC(=O)CC2)c(NC(=O)Nc2ccc(Oc3ccncc3)cc2)s1 [Example 4, 1-(5-tert-Butyl-3-(5-oxo-[1,4]diazepane-1-carbonyl)thiophen-2-yl)-3-(4-(pyridin-4-yloxy)phenyl)urea]
0 to 25 | 0 to 25 | 76 to 100 | 26 to 50 | 26 to 50 | 0 to 25 | 0 to 25 | CC(C)(C)c1cc(C(=O)N2CCNC(=O)C2)c(NC(=O)Nc2ccc(Oc3ccncc3)cc2)s1 [Example 2, 1-(5-tert-Butyl-3-(3-oxo-piperazine-1-carbonyl)thiophen-2-yl)-3-(4-(pyridin-4-yloxy)phenyl)urea]
